Measurements taken from US20230339835A1, “2,3,5-TRIMETHYL-6-NONYLCYCLOHEXA-2,5-DIENE-1,4-DIONE FOR SUPPRESSING AND TREATING ALPHA-SYNUCLEINOPATHIES, TAUOPATHIES, AND OTHER DISORDERS” (PTC THERAPEUTICS, INC., priority 2018, published 2023).

What was measured:
[1] = target: T1, recombinant human αSynuclein (Homo sapiens, UniProt P37840); experiment: Cell-free αSynuclein aggregation assay (Thioflavin T); assay type: biochemical; conditions: 200 μM αSynuclein, 100 μM compound, t=24 hours, one-way ANOVA with Tukey's test
T1 construct: purchased Proteos, Inc
Description: Summary: The compound 2,3,5-trimethyl-6-nonylcyclohexa-2,5-diene-1,4-dione (“C9”), and its C8 (2,3,5-trimethyl-6-octylcyclohexa-2,5-diene-1,4-dione) and C7 (2,3,5-trimethyl-6-heptylcyclohexa-2,5-diene-1,4-dione) analogs were tested for their function as inhibitors of αSynuclein aggregation, as measured by the presence and extent of a lag phase in the kinetics of protein aggregation. Changes in the fluorescence intensity by the aggregate-binding fluorophore, Thioflavin T, were followed to report on the protein aggregation as a function of time.
Experimental Methods: Cell-free αSynuclein aggregation assays were set up with 200 μM of recombinant human αSynuclein (Proteos, Inc.) in the presence of 100 μM of compound (from 10 mM stock solutions in DMSO) or in 1% (v/v) DMSO as vehicle. All solutions were prepared in Dulbecco's phosphate-buffered saline (DPBS) buffer (pH 7.4) with 0.03% (v/v) NaN3 and 5 μM Thioflavin T (ThT), prepared as a master mix before addition of the protein or compounds. A protein master mix was then prepared and separated into 4 tubes (1 per condition). […]
Protein solution+/−compound and background samples were then loaded into wells of an optically transparent 96-well plate with black walls (Corning Costar), which was sealed with a LightCycler® 480 seal (Roche Life Science), incubated at 37° C. for 15 minutes to equilibrate, after which the data collection was started. A Tecan M1000 spectrometer was used to collect data points on ThT fluorescence (ex/em 450/490 nm) every 30 minutes. The plate was agitated by shaking in between fluorescence reads.
Data Analysis and Results: Fluorescence intensity data were collected on all the samples over time. The endpoint fluorescence intensity unit (FIU) value of the mean of vehicle-treated αSyn samples was set to 100%, and all other FIU values were normalized relative to it (see FIG. 1A). The end results were plotted as normalized ThT fluorescence (%) with respect to time.
Normalized ThT fluorescence values (% FIU) at t=24 hours were used to compare samples (see FIG. 1B). […]

[2] = target: T2, pre-formed fibrils (PFFs) of human wild-type Tau K18 fragment (Homo sapiens, UniProt P10636); experiment: Cell-free Tau K18 WT pre-formed fibril disaggregation assay (Thioflavin T); assay type: biochemical; conditions: 10 μM Tau PFFs, 30 μM compound, 94 hr, vs vehicle (Dunnett's test)
T2 construct: human recombinant Tau K18 WT fragment were generated by incubating the Tau K18 monomer (Bio-Techne®); purchased Bio-Techne
Description: Summary: Compounds 2,3,5-trimethyl-6-nonylcyclohexa-2,5-diene-1,4-dione (C9), 2,3,5-trimethyl-6-octylcyclohexa-2,5-diene-1,4-dione (C8), and 2,3,5-trimethyl-6-heptylcyclohexa-2,5-diene-1,4-dione (C7) were tested for their ability to disaggregate pre-formed fibrils (PFFs) of human wild-type Tau K18 fragment, as measured by the decrease in fluorescence intensity of the aggregate-binding fluorophore, Thioflavin T, over time.
Experimental Methods: Pre-formed fibrils (PFFs) of the human recombinant Tau K18 WT fragment were generated by incubating the Tau K18 monomer (Bio-Techne®) with sodium heparin in a 1:1 ratio in presence of excess (50×) tris(2-carboxyethyl)phosphine (TCEP) as the reducing agent in Dulbecco's phosphate-buffered saline (DPBS) buffer (pH 7.4). The mixture was incubated for 4 days at 37° C. without agitation to yield PFFs in 100 μM final concentration.
Cell-free Tau disaggregation assays were set up with 10 μM of Tau PFFs in the presence of 30 μM of compound (from 10 mM stocks in DMSO) or in 0.3% (v/v) DMSO as vehicle. All solutions were prepared in DPBS buffer (pH 7.4) with 0.03% (v/v) NaN3 and 5 μM Thioflavin T (ThT), prepared as a master mix before addition of the protein or compounds. A protein master mix was first prepared the day before the assay to pre-equilibrate the Tau PFFs at 10 μM at ambient temperature and atmosphere. The next day, the pre-mixed protein solution was separated into 4 tubes (1 per condition). […]
Tau PFFs solution+/−compound and background samples were then loaded into wells of an optically transparent 96-well plate with black walls, which was sealed with a LightCycler® 480 seal (Roche Life Science), incubated at 37° C. for 15 minutes to equilibrate and the data collection was initiated. A Tecan M1000 spectrometer was used to collect data points on ThT fluorescence (ex/em 450/490 nm) every 30 minutes without agitation.
Data Analysis and Results: The maximum fluorescence intensity unit (FIU) value of the vehicle-treated Tau samples was set to 100%, to which all other FIU values were normalized relatively. […]

T2 sequence (P10636 561-685 limits assumed): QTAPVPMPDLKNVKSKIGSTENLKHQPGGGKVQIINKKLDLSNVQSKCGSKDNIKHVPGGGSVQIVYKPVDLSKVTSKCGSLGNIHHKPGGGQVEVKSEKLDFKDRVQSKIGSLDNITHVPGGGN

| Compound | inhibition of αSynuclein aggregation (normalized ThT fluorescence vs vehicle) [1] | reduction in Tau fibril content [2] |
| --- | --- | --- |
| CCCCCCCCC1=C(C)C(=O)C(C)=C(C)C1=O [Compound C8, 2,3,5-trimethyl-6-octylcyclohexa-2,5-diene-1,4-dione, reference compound] | not statistically significant | did not have a significant reduction |
| CCCCCCCCCC1=C(C)C(=O)C(C)=C(C)C1=O [Compound C9, 2,3,5-trimethyl-6-nonylcyclohexa-2,5-diene-1,4-dione] | significant inhibition effect | significant reduction |
